Source: patent publication US20110039793A1, “Application of ginsenoside Rb1 in preparing medicaments for treating dilated cardiomyopathy” (priority 2008, published 2011)

Tested on: cTnT^R141W transgenic dilated cardiomyopathy mice model
Assay: M-mode echocardiography, cardiac function and morphous, once a month
Type: in vivo
Design: CO (Cardiac Output) / LVAW; d (left ventricular anterior wall thickness, end of diastole) / LV Mass (AW) (weight of the left ventricular) / Diameter; d (inner diameter of the left ventricular, end of diastole) / Volume; d (volume of the left ventricular, end of diastole) / SV (Stroke Volume): unit not given here
Conditions: for CO (Cardiac Output) / Diameter; d (inner diameter of the left ventricular, end of diastole) / Diameter; s (inner diameter of the left ventricular, end of systole) / EF (Ejection Fraction) / FS (Fractional Shortening) / LV Mass (AW) (weight of the left ventricular) / LVAW; d (left ventricular anterior wall thickness, end of diastole) / LVAW; s (left ventricular anterior wall thickness, end of systole) / LVPW; d (left ventricular posterior wall thickness, end of diastole) / LVPW; s (left ventricular posterior wall thickness, end of systole) / SV (Stroke Volume) / Volume; d (volume of the left ventricular, end of diastole) / Volume; s (volume of the left ventricular, end of systole): 75 mg/kg in drinking water
Experimental: The positive mice at 1.5 months old are distributed by weight and cardiac function uniformly into the model group and the ginsenoside Rb1 administration group according to the echocardiography result, and each group comprises twelve mice. Ginsenoside Rb1, 75 mg/kg (State Yao zhun Zi, Yun Nan Tean Na Pharmaceutical Co., Ltd) is put into animal drinking water, and continuously administered for seven months.
Echocardiography detection is performed once a month. Mice were anesthetized with tribromoethanol, scanned by small animal ultrasonic apparatus (Vevo 770 small animal ultrasonic detection system, Canada), with 30 MHz probe, M-mode echocardiography were analyzed: Body weight (BW), LVPW, d (the thickness of the left ventricular posterior wall at the end of the diastole), LVPW, s (the thickness of the left ventricular posterior wall at the end of the systole), LVAW, d (the thickness of the left ventricular anterior wall at the end of the diastole), LVAW, s (the thickness of the left ventricular anterior wall at the end of the systole), LV Mass (the weight of the left ventricular), Diameter, s (the inner diameter of the left ventricular at the end of the systole), Diameter, d (the inner diameter of the left ventricular at the end of the diastole), Volume, s (the volume of the left ventricular at the end of the systole), Volume, d (the volume of the left ventricular at the end of the diastole), SV (Stroke Volume), EF (Ejection Fraction), FS (Fractional Shortening) and CO (Cardiac Output).

[1] = long-term administration, echocardiography

CC(C)=CCC[C@](C)(O[C@@H]1O[C@H](CO[C@@H]2O[C@H](CO)[C@@H](O)[C@H](O)[C@H]2O)[C@@H](O)[C@H](O)[C@H]1O)[C@H]1CC[C@]2(C)[C@@H]1[C@H](O)C[C@@H]1[C@@]3(C)CC[C@H](O[C@@H]4O[C@H](CO)[C@@H](O)[C@H](O)[C@H]4O[C@@H]4O[C@H](CO)[C@@H](O)[C@H](O)[C@H]4O)C(C)(C)[C@@H]3CC[C@]12C [Rb1, ginsenoside Rb1]
CO (Cardiac Output) (0 month of administration): 19.59 ± 2.99 | Diameter; d (inner diameter of the left ventricular, end of diastole) (0 month of administration): 4.02 ± 0.32 | Diameter; s (inner diameter of the left ventricular, end of systole) (0 month of administration): 2.84 ± 0.41 | EF (Ejection Fraction) (0 month of administration): 57.05 ± 7.87 | FS (Fractional Shortening) (0 month of administration): 29.77 ± 5.07 | LV Mass (AW) (weight of the left ventricular) (0 month of administration): 92.06 ± 17.12 | LVAW; d (left ventricular anterior wall thickness, end of diastole) (0 month of administration): 0.67 ± 0.06 | LVAW; s (left ventricular anterior wall thickness, end of systole) (0 month of administration): 0.99 ± 0.12 | LVPW; d (left ventricular posterior wall thickness, end of diastole) (0 month of administration): 0.67 ± 0.07 | LVPW; s (left ventricular posterior wall thickness, end of systole) (0 month of administration): 0.85 ± 0.06 | SV (Stroke Volume) (0 month of administration): 40.00 ± 4.42 | Volume; d (volume of the left ventricular, end of diastole) (0 month of administration): 71.50 ± 13.77 | Volume; s (volume of the left ventricular, end of systole) (0 month of administration): 31.51 ± 11.53 | CO (Cardiac Output) (1 month of administration): 22.14 ± 2.64 | Diameter; d (inner diameter of the left ventricular, end of diastole) (1 month of administration): 4.33 ± 0.38 | Diameter; s (inner diameter of the left ventricular, end of systole) (1 month of administration): 3.01 ± 0.46 | EF (Ejection Fraction) (1 month of administration): 58.32 ± 7.31 | FS (Fractional Shortening) (1 month of administration): 30.78 ± 4.73 | LV Mass (AW) (weight of the left ventricular) (1 month of administration): 120.38 ± 13.83 | LVAW; d (left ventricular anterior wall thickness, end of diastole) (1 month of administration): 0.84 ± 0.12 | LVAW; s (left ventricular anterior wall thickness, end of systole) (1 month of administration): 1.21 ± 0.13 | LVPW; d (left ventricular posterior wall thickness, end of diastole) (1 month of administration): 0.67 ± 0.06 | LVPW; s (left ventricular posterior wall thickness, end of systole) (1 month of administration): 0.95 ± 0.11 | SV (Stroke Volume) (1 month of administration): 48.69 ± 5.08 | Volume; d (volume of the left ventricular, end of diastole) (1 month of administration): 85.37 ± 17.55 | Volume; s (volume of the left ventricular, end of systole) (1 month of administration): 36.68 ± 13.77 | CO (Cardiac Output) (2 month of administration): 21.89 ± 1.78 | Diameter; d (inner diameter of the left ventricular, end of diastole) (2 month of administration): 4.31 ± 0.27 | Diameter; s (inner diameter of the left ventricular, end of systole) (2 month of administration): 3.15 ± 0.39 | EF (Ejection Fraction) (2 month of administration): 52.93 ± 7.59 | FS (Fractional Shortening) (2 month of administration): 27.23 ± 5.02 | LV Mass (AW) (weight of the left ventricular) (2 month of administration): 111.52 ± 7.92 | LVAW; d (left ventricular anterior wall thickness, end of diastole) (2 month of administration): 0.78 ± 0.05 | LVAW; s (left ventricular anterior wall thickness, end of systole) (2 month of administration): 1.13 ± 0.14 | LVPW; d (left ventricular posterior wall thickness, end of diastole) (2 month of administration): 0.69 ± 0.08 | LVPW; s (left ventricular posterior wall thickness, end of systole) (2 month of administration): 0.88 ± 0.12 | SV (Stroke Volume) (2 month of administration): 43.68 ± 2.20 | Volume; d (volume of the left ventricular, end of diastole) (2 month of administration): 83.96 ± 12.12 | Volume; s (volume of the left ventricular, end of systole) (2 month of administration): 40.29 ± 11.15 | CO (Cardiac Output) (3 month of administration): 22.72 ± 3.18 | Diameter; d (inner diameter of the left ventricular, end of diastole) (3 month of administration): 4.61 ± 0.35 | Diameter; s (inner diameter of the left ventricular, end of systole) (3 month of administration): 3.47 ± 0.48 | EF (Ejection Fraction) (3 month of administration): 48.85 ± 9.39 | FS (Fractional Shortening) (3 month of administration): 24.88 ± 5.88 | LV Mass (AW) (weight of the left ventricular) (3 month of administration): 124.88 ± 20.30 | LVAW; d (left ventricular anterior wall thickness, end of diastole) (3 month of administration): 0.75 ± 0.08 | LVAW; s (left ventricular anterior wall thickness, end of systole) (3 month of administration): 0.98 ± 0.09 | LVPW; d (left ventricular posterior wall thickness, end of diastole) (3 month of administration): 0.71 ± 0.06 | LVPW; s (left ventricular posterior wall thickness, end of systole) (3 month of administration): 0.88 ± 0.11 | SV (Stroke Volume) (3 month of administration): 46.95 ± 6.12 | Volume; d (volume of the left ventricular, end of diastole) (3 month of administration): 98.37 ± 16.57 | Volume; s (volume of the left ventricular, end of systole) (3 month of administration): 51.42 ± 15.53 | CO (Cardiac Output) (4 month of administration): 24.42 ± 1.52 | Diameter; d (inner diameter of the left ventricular, end of diastole) (4 month of administration): 4.56 ± 0.26 | Diameter; s (inner diameter of the left ventricular, end of systole) (4 month of administration): 3.38 ± 0.35 | EF (Ejection Fraction) (4 month of administration): 51.07 ± 6.01 | FS (Fractional Shortening) (4 month of administration): 26.05 ± 3.64 | LV Mass (AW) (weight of the left ventricular) (4 month of administration): 131.15 ± 12.93 | LVAW; d (left ventricular anterior wall thickness, end of diastole) (4 month of administration): 0.81 ± 0.06 | LVAW; s (left ventricular anterior wall thickness, end of systole) (4 month of administration): 1.17 ± 0.11 | LVPW; d (left ventricular posterior wall thickness, end of diastole) (4 month of administration): 0.71 ± 0.06 | LVPW; s (left ventricular posterior wall thickness, end of systole) (4 month of administration): 0.89 ± 0.12 | SV (Stroke Volume) (4 month of administration): 48.37 ± 3.32 | Volume; d (volume of the left ventricular, end of diastole) (4 month of administration): 95.93 ± 13.01 | Volume; s (volume of the left ventricular, end of systole) (4 month of administration): 47.56 ± 11.76 | CO (Cardiac Output) (5 month of administration): 23.18 ± 3.13 | Diameter; d (inner diameter of the left ventricular, end of diastole) (5 month of administration): 4.93 ± 0.30 | Diameter; s (inner diameter of the left ventricular, end of systole) (5 month of administration): 3.86 ± 0.32 | EF (Ejection Fraction) (5 month of administration): 43.83 ± 3.93 | FS (Fractional Shortening) (5 month of administration): 21.76 ± 2.21 | LV Mass (AW) (weight of the left ventricular) (5 month of administration): 150.86 ± 25.12 | LVAW; d (left ventricular anterior wall thickness, end of diastole) (5 month of administration): 0.82 ± 0.12 | LVAW; s (left ventricular anterior wall thickness, end of systole) (5 month of administration): 1.13 ± 0.10 | LVPW; d (left ventricular posterior wall thickness, end of diastole) (5 month of administration): 0.74 ± 0.06 | LVPW; s (left ventricular posterior wall thickness, end of systole) (5 month of administration): 0.82 ± 0.08 | SV (Stroke Volume) (5 month of administration): 50.03 ± 5.63 | Volume; d (volume of the left ventricular, end of diastole) (5 month of administration): 115.02 ± 16.33 | Volume; s (volume of the left ventricular, end of systole) (5 month of administration): 64.99 ± 12.65 | CO (Cardiac Output) (6 month of administration): 25.99 ± 2.23 | Diameter; d (inner diameter of the left ventricular, end of diastole) (6 month of administration): 5.35 ± 0.19 | Diameter; s (inner diameter of the left ventricular, end of systole) (6 month of administration): 4.38 ± 0.19 | EF (Ejection Fraction) (6 month of administration): 37.03 ± 3.07 | FS (Fractional Shortening) (6 month of administration): 18.01 ± 1.71 | LV Mass (AW) (weight of the left ventricular) (6 month of administration): 180.65 ± 5.80 | LVAW; d (left ventricular anterior wall thickness, end of diastole) (6 month of administration): 0.74 ± 0.04 | LVAW; s (left ventricular anterior wall thickness, end of systole) (6 month of administration): 1.09 ± 0.09 | LVPW; d (left ventricular posterior wall thickness, end of diastole) (6 month of administration): 0.80 ± 0.01 | LVPW; s (left ventricular posterior wall thickness, end of systole) (6 month of administration): 0.93 ± 0.06 | SV (Stroke Volume) (6 month of administration): 51.20 ± 5.31 | Volume; d (volume of the left ventricular, end of diastole) (6 month of administration): 138.41 ± 11.40 | Volume; s (volume of the left ventricular, end of systole) (6 month of administration): 87.21 ± 8.99 | CO (Cardiac Output) (7 month of administration): 24.35 ± 4.80 | Diameter; d (inner diameter of the left ventricular, end of diastole) (7 month of administration): 5.46 ± 0.34 | Diameter; s (inner diameter of the left ventricular, end of systole) (7 month of administration): 4.60 ± 0.44 | EF (Ejection Fraction) (7 month of administration): 33.02 ± 6.64 | FS (Fractional Shortening) (7 month of administration): 15.92 ± 3.53 | LV Mass (AW) (weight of the left ventricular) (7 month of administration): 190.72 ± 20.29 | LVAW; d (left ventricular anterior wall thickness, end of diastole) (7 month of administration): 0.79 ± 0.12 | LVAW; s (left ventricular anterior wall thickness, end of systole) (7 month of administration): 1.08 ± 0.17 | LVPW; d (left ventricular posterior wall thickness, end of diastole) (7 month of administration): 0.82 ± 0.13 | LVPW; s (left ventricular posterior wall thickness, end of systole) (7 month of administration): 0.87 ± 0.19 | SV (Stroke Volume) (7 month of administration): 47.35 ± 6.92 | Volume; d (volume of the left ventricular, end of diastole) (7 month of administration): 145.92 ± 21.42 | Volume; s (volume of the left ventricular, end of systole) (7 month of administration): 98.58 ± 22.36 | cardiac function [1]: improve the cardiac function | dilation of cardiac chamber [1]: significantly reduce
